{"source": "patent US20140357512A1", "about": "“HISTONE DEACETYLASE (HDAC) BIOMARKERS IN MULTIPLE MYELOMA” (priority 2013, published 2014)", "tested_on": "human myeloma cell line MM.1S", "experiment": "SILAC acetylated-lysine peptide profiling, HDAC inhibitor vs DMSO (light/heavy ratio)", "assay_type": "cell-based", "description": "An embodiment of the invention comprises utilizing the SILAC method in order to quantitate changes in protein expression between two or more populations of cells. The SILAC method is a technique based on mass spectrometry that detects differences in protein abundance among samples using non-radioactive isotopic labeling. The SILAC method is known in the art, and described in detail in Ong et al., “Stable Isotope Labeling by Amino Acids in Cell Culture, SILAC, as a Simple and Accurate Approach to Expression Proteomics”, Molecular & Cellular Proteomics, vol. 1, pp. 376-386 (2002), which is incorporated herein by reference in its entirety.\nBriefly, the SILAC method involves growing two populations of cells in cell culture. The first population of cells is grown in growth media containing normal amino acids (“normal media”). The second population of cells is grown in media lacking a standard essential amino acid (such as lysine), but is then supplemented with a non-radioactive, isotopically labeled form of that essential amino acid (such as lysine labeled with ^13C atoms, rather than normal ^12C atoms), which is called “heavy media”. When the two populations of cells are each growing in the medium, they incorporate the amino acids into all of their proteins. The growth of cells maintained in the heavy media is no different from that in normal media. All peptides containing the heavy amino acids are heavier than their normal counterparts. The cells from each of the two populations of cells are lysed. The lysates from each of the two cell populations are then combined. The combined cell lysates are then analyzed by mass spectrometry. Pairs of chemically identical peptides of different stable isotope composition can be differentiated in a mass spectrometer due to their difference in mass. The ratio of peak intensities in the mass spectrum for such peptide pairs reflects the abundance ratio for the two proteins.\nThis example describes SILAC studies that were performed to compare the effects of three different HDAC inhibitors (Compound A, Compound B, and tubastatin A) to a control on a human multiple myeloma cell line. The HDAC inhibitors were also compared amongst themselves to determine differences in their effects.\nA human myeloma cell line MM.1S was grown using either ^12C (light) or ^13C (heavy) lysine containing culture medium. The “heavy” cells were treated with DMSO as the control, and the “light” cells were treated with a single HDAC inhibitor at 37° C. for 6 hours. The heavy and light cells were lysed, and the lysates were mixed in 1:1 ratio and digested with the protease trypsin. The acetylated lysine containing peptides (due to the action of the HDAC inhibitor) in the digested peptide pool were captured by a non-specific anti-acetylated lysine antibody cocktail (the antibodies identify both light and heavy acetylated peptides), and subjected to mass spectrometry analysis in order to identify thousands of individual peptides.\nThousands of peptides were identified in pairs (^12C and ^13C) due to their known mass differences. The amino acid sequence and quantitative ratio (Light/Heavy) of a given peptide in two differentially treated cell lysates were then determined and annotated with their possible protein (gene) sources.\nAs stated above, three HDAC inhibitors (Compound A, Compound B, and Tubastatin A) were used. Thus, the SILAC method was performed three times, with a different HDAC inhibitor compared to a control each time. Accordingly, there are three pairs of quantitative data in the table below, i.e., Compound A:DMSO, Compound B:DMSO, and Tubastatin A:DMSO. A cut-off of 1.30 fold of change (increase or decrease) was then used to determine “changed” or “+” in the table, and any peptides with a fold of change less than 1.3 fold were determined to be “unchanged” or “0” in the table. Those peptides that were not identified were marked as “NA” in the table. […]", "data": [{"smiles": "O=C(NO)c1cnc(NC2(c3cccc(F)c3)CCCCC2)nc1", "note": "[Compound B, 2-((1-(3-fluorophenyl)cyclohexyl)amino)-N-hydroxypyrimidine-5-carboxamide]", "values": [{"measurement": "light to heavy ratio (L/H ratio) of acetylated peptide SFLLK(ac)DSETSQR (SEQ ID NO: 567)", "setting": "Serine hydroxymethyltransferase mitochondrial [474], gene SHMT2, inhibitor:DMSO", "result": 0.00, "unit": "log 2"}, {"measurement": "light to heavy ratio (L/H ratio) of acetylated peptide SGLLDK(ac)WK (SEQ ID NO: 602)", "setting": "Signal peptidase complex subunit 2 [38], gene LOC653566, SPCS2, inhibitor:DMSO", "result": 0.00, "unit": "log 2"}, {"measurement": "light to heavy ratio (L/H ratio) of acetylated peptide SNYK(ac)MMFVK (SEQ ID NO: 368)", "setting": "Small acidic protein [174], C11orf58, drug:DMSO", "result": "−0.45", "unit": "log 2"}, {"measurement": "light to heavy ratio (L/H ratio) of acetylated peptide YDDPEVQK(ac)DIK (SEQ ID NO: 578)", "setting": "Stress-70 protein mitochondrial [135], gene HSPA9, inhibitor:DMSO", "result": 0.00, "unit": "log 2"}, {"measurement": "light to heavy ratio (L/H ratio) of acetylated peptide […](ac)SLAEHR (SEQ ID NO: 534)", "setting": "Stress-induced-phosphoprotein 1 [325], gene STIP1, inhibitor:DMSO", "result": 0.00, "unit": "log 2"}, {"measurement": "light to heavy ratio (L/H ratio) of acetylated peptide, log 2 scale", "setting": "TAMK(ac)YNLGLDLR (SEQ ID NO: 158), Glutamate dehydrogenase 1 mitochondrial [527], GLUD1", "result": 0.00}, {"measurement": "L/H ratio of acetylated peptide", "setting": "TFYQMYDK(ac)GLVYR (SEQ ID NO: 407), Isoleucyl-tRNA synthetase mitochondrial [233], IARS2", "result": "−0.56", "unit": "log 2"}, {"measurement": "light to heavy ratio (L/H ratio) of acetylated peptide, log 2 scale", "setting": "TLQYK(ac)[…] (SEQ ID NO: 252), 40S ribosomal protein S16 [50], RPS16", "result": 0.00}, {"measurement": "L/H ratio of acetylated peptide", "setting": "TPSVGK(ac)[…] (SEQ ID NO: 418), Isoform Long of Antigen KI-67 [2264], MKI67", "result": "−0.86", "unit": "log 2"}, {"measurement": "light to heavy ratio (L/H ratio) of acetylated peptide, log 2 scale", "setting": "TPVIVTLK(ac)ENER (SEQ ID NO: 176), Hypoxia up-regulated protein 1 [75], HYOU1", "result": 0.00}, {"measurement": "L/H ratio of acetylated peptide", "setting": "TTHLIAK(ac)EEMIHNLQ (SEQ ID NO: 435), 26S proteasome non-ATPase regulatory subunit 12 [448], PSMD12", "result": "−0.38", "unit": "log 2"}, {"measurement": "L/H ratio of acetylated peptide", "setting": "TTTCSK(ac)LAYYYQR (SEQ ID NO: 451), Signal recognition particle 54 kDa protein [120], SRP54", "result": 0.40, "unit": "log 2"}, {"measurement": "L/H ratio of acetylated peptide […](ac)YVPR (SEQ ID NO: 109)", "setting": "TUBB2C [58], log 2 scale, drug vs DMSO", "result": 0.00}, {"measurement": "L/H ratio of acetylated peptide ILAEGGGAK(ac)FK (SEQ ID NO: 110)", "setting": "TUFM [91], log 2 scale, drug vs DMSO", "result": 0.00}, {"measurement": "L/H ratio of acetylated peptide", "setting": "TVSK(ac)[…] (SEQ ID NO: 428), 6-phosphogluconate dehydrogenase decarboxylating [38], PGD", "result": 0.74, "unit": "log 2"}, {"measurement": "L/H ratio of acetylated peptide QIESK(ac)[…] (SEQ ID NO: 111)", "setting": "TXN [8], log 2 scale, drug vs DMSO", "result": 0.00}, {"measurement": "L/H ratio of acetylated peptide VYVAK(ac)[…] (SEQ ID NO: 113)", "setting": "TXNDC5, MUTED, MUTED-TXNDC5 [118], log 2 scale, drug vs DMSO", "result": 0.00}, {"measurement": "L/H ratio of acetylated peptide […](ac)YQGPR (SEQ ID NO: 112)", "setting": "TXNDC5, MUTED, MUTED-TXNDC5 [150], log 2 scale, drug vs DMSO", "result": 0.00}, {"measurement": "light to heavy ratio (L/H ratio) of acetylated peptide, log 2 scale", "setting": "TYGEIFEK(ac)FHPIR (SEQ ID NO: 188), NADH dehydrogenase [ubiquinone] 1 subunit C2 [114], NDUFC2", "result": 0.00}, {"measurement": "light to heavy ratio (L/H ratio) of acetylated peptide NICSK(ac)YSVR (SEQ ID NO: 256)", "setting": "Thioredoxin domain-containing protein 5 [390], TXNDC5, MUTED, MUTED-TXNDC5, drug:DMSO", "result": 0.00, "unit": "log 2"}, {"measurement": "light to heavy ratio (L/H ratio), log 2 scale, acetylated peptide […](ac)YGK (SEQ ID NO: 817)", "setting": "Transitional endoplasmic reticulum ATPase [109], gene VCP, drug:DMSO", "result": 0.00}, {"measurement": "light to heavy ratio (L/H ratio) of acetylated peptide SEIINSK(ac)NFDR (SEQ ID NO: 525)", "setting": "Transmembrane protein 43 [159], gene TMEM43, inhibitor:DMSO", "result": 0.00, "unit": "log 2"}, {"measurement": "light to heavy ratio (L/H ratio) of acetylated peptide VK(ac)[…] (SEQ ID NO: 562)", "setting": "Tricarboxylate transport protein mitochondrial [149], gene SLC25A1, inhibitor:DMSO", "result": 0.00, "unit": "log 2"}, {"measurement": "light to heavy ratio (L/H ratio), log 2 scale, acetylated peptide FGAPQK(ac)DVK (SEQ ID NO: 788)", "setting": "Trifunctional enzyme subunit alpha mitochondrial [359], gene HADHA, drug:DMSO", "result": 0.00}, {"measurement": "light to heavy ratio (L/H ratio), log 2 scale, acetylated peptide ILQEGVDPK(ac)K (SEQ ID NO: 789)", "setting": "Trifunctional enzyme subunit alpha mitochondrial [569], gene HADHA, drug:DMSO", "result": 0.00}, {"measurement": "light to heavy ratio (L/H ratio) of acetylated peptide VPGK(ac)DTVTK (SEQ ID NO: 308)", "setting": "Trifunctional enzyme subunit beta mitochondrial [272], HADHB, drug:DMSO", "result": 0.00, "unit": "log 2"}, {"measurement": "L/H ratio of acetylated peptide VVVTK(ac)YCDPDSYHR (SEQ ID NO: 114)", "setting": "U2AF2 [462], log 2 scale, drug vs DMSO", "result": 0.00}, {"measurement": "L/H ratio of acetylated peptide", "setting": "VAHLALK(ac)HR (SEQ ID NO: 436), Isoform Rpn10A of 26S proteasome non-ATPase regulatory subunit 4 [9]8, PSMD4", "result": "−0.57", "unit": "log 2"}, {"measurement": "L/H ratio of acetylated peptide FGIAAK(ac)[…] (SEQ ID NO: 115)", "setting": "VDAC1 [224], log 2 scale, drug vs DMSO", "result": 0.00}, {"measurement": "L/H ratio of acetylated peptide YK(ac)[…] (SEQ ID NO: 116)", "setting": "VDAC2 [63], log 2 scale, drug vs DMSO", "result": 0.00}, {"measurement": "L/H ratio of acetylated peptide (ac)[…](ac)AAK (SEQ ID NO: 6)", "setting": "VDAC3 [12], log 2 scale, drug vs DMSO", "result": "−0.63"}, {"measurement": "L/H ratio of acetylated peptide YK(ac)[…] (SEQ ID NO: 117)", "setting": "VDAC3 [63], log 2 scale, drug vs DMSO", "result": 0.00}]}]}
